From patent US8901115B2, “Cyclic P1 linkers as factor XIa inhibitors” (Bristol-Myers Squibb Company, priority 2011, dated 2014) come the findings set out here.

Structures can show the parent of a compound that is named as a salt. Where two headings read alike, the source gives them in different places.

Data set [1] addresses purified human Factor XIa (Homo sapiens (Human), UniProt P03951). Put plainly: Factor XIa enzyme inhibition assay (chromogenic substrate S-2366). Type of data set: biochemical. Here is the method: The effectiveness of compounds of the present invention as inhibitors of the coagulation Factors XIa, VIIa, IXa, Xa, XIIa, plasma kallikrein or thrombin, can be determined using a relevant purified serine protease, respectively, and an appropriate synthetic substrate. The rate of hydrolysis of the chromogenic or fluorogenic substrate by the relevant serine protease was measured both in the absence and presence of compounds of the present invention. Assays were conducted at room temperature or at 37° C. […] A decrease in the rate of absorbance or fluorescence change in the presence of inhibitor is indicative of enzyme inhibition. Such methods are known to one skilled in the art. The results of this assay are expressed as the inhibitory constant, Ki.
Values of Ki were determined by allowing the protease to react with the substrate in the presence of the inhibitor. Reactions were allowed to go for periods of 20-180 minutes (depending on the protease) and the velocities (rate of absorbance or fluorescence change versus time) were measured. The following relationships were used to calculate Ki values: (vo−vs)/vs=I/(Ki(1+S/Km)) for a competitive inhibitor with one binding site; or vs/vo=A+((B−A)/(1+((IC50/(I))^n))); and Ki=IC50/(1+S/Km) for a competitive inhibitor where: […]

The conditions of data set [2]: rcm bond, 12-membered ring.
For data set [3] the following is noted: from C=CCCC(=O)Nc1cc(NC(=O)OC)ccc1-c1cn(COCC[Si](C)(C)C)c([C@H](CC=C)NC(=O)OC(C)(C)C)n1; rcm bond; 13-membered ring; 1.5 h.
The mark [4] stands for this setting: substrate S-2366, 50 mM HEPES pH 7.4.

Chain of purified human Factor XIa (P03951 388-625): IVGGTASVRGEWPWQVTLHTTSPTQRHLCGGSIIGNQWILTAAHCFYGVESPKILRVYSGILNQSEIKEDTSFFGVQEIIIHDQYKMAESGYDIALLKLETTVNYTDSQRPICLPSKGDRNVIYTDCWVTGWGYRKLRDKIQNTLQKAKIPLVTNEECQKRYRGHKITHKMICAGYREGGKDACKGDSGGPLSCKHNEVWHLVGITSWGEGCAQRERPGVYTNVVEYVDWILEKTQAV
Chain of purified human Factor XIa (P03951 19-387 partner): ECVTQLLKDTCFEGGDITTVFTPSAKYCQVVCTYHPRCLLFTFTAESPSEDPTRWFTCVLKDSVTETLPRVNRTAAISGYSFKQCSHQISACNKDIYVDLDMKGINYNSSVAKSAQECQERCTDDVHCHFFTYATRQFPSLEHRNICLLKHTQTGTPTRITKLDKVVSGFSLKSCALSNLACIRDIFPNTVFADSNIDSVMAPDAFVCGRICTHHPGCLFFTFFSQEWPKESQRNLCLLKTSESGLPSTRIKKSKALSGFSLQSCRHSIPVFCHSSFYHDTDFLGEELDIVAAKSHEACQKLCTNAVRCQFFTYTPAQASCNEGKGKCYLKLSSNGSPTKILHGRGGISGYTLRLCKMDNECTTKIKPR

With `COC(=O)Nc1ccc2c(c1)NC(=O)[C@H](C)CCC[C@H](N1CCC(c3nccc(Cl)c3F)NC1=O)c1nc-2c[nH]1` (single isomer, unassigned) [Example 58], the Ki in data set [1] (setting [4]) was below 5 nM. Same read-out and setting: the figure for `COC(=O)Nc1ccc2c(c1)NC(=O)[C@H](C)CCC[C@H](N1CCC(c3c(Cl)ccc(Cl)c3F)NC1=O)c1nc-2c[nH]1` (stereo partly drawn) [Example 18, Methyl N-[(10R,14S)-14-[4-(3,6-dichloro-2-fluorophenyl)-2-oxo-1,3-diazinan-1-yl]-10-methyl-9-oxo-8,16,18-triazatricyclo[13.2.1.0^2,7]octadeca-1(17),2,4,6,15(18)-pentaen-5-yl]carbamate] is 6.83 nM; for `COC(=O)Nc1ccc2c(c1)NC(=O)CC/C=C/C[C@H](N1CCC(c3cc(Cl)ccn3)NC1=O)c1nc-2c[nH]1` (single isomer, unassigned) [Example 40] it is 24.4 nM.

In data set [2] (from C=CC[C@H](NC(=O)OC(C)(C)C)c1nc(-c2ccc(NC(=O)OC)cc2N[C@H](CC=C)C(=O)OC)cn1COCC[Si](C)(C)C, Grubbs II (0.4 eq), microwave, DCE, 40.0 mM, 120.0 °C), `COC(=O)Nc1ccc2c(c1)N[C@@H](C(=O)OC)C/C=C/C[C@H](NC(=O)OC(C)(C)C)c1nc-2cn1COCC[Si](C)(C)C` gave a ring closure, isolated yield of 23%. In turn, `COC(=O)Nc1ccc2c(c1)N[C@@H](C(=O)OC)CCCC[C@H](N1CCC(c3cccc(Cl)c3)OC1=O)c1nc-2c[nH]1` (stereo partly drawn) [Example 5, Methyl (9R,14S)-14-(6-(3-chlorophenyl)-2-oxo-1,3-oxazinan-3-yl)-5-((methoxycarbonyl)amino)-8,16,18-triazatricyclo[13.2.1.0^2,7]octadeca-1(17),2,4,6,15(18)-pentaene-9-carboxylate] came in with a Ki in data set [1] (setting [4]) of 12.2 nM. As to `COC(=O)Nc1ccc2c(c1)NC(=O)CC/C=C/C[C@H](NC(=O)OC(C)(C)C)c1nc-2cn1COCC[Si](C)(C)C`, in data set [3], the ring closure, yield after HPLC came to 42%. Compound `COC(=O)Nc1ccc2c(c1)NC(=O)[C@H](C)CCC[C@H](N1CCN(c3cccc(Cl)c3F)CC1=O)c1cc-2ccn1` [Example 20, Methyl N-[(10R,14S)-14-[4-(3-chloro-2-fluorophenyl)-2-oxopiperazin-1-yl]-10-methyl-9-oxo-8,16-diazatricyclo[13.3.1.0^2,7]nonadeca-1(19),2(7),3,5,15,17-hexaen-5-yl]carbamate] came in with a Ki in data set [1] (setting [4]) of 7.46 nM. `COC(=O)Nc1ccc2c(c1)NC(=O)CC/C=C/C[C@H](N1CCC(C)(c3c(F)ccc(Cl)c3F)OC1=O)c1nc-2c(Cl)[nH]1` (stereo partly drawn) [Example 32, Methyl N-[(12E,15S)-18-chloro-15-[6-(3-chloro-2,6-difluorophenyl)-6-methyl-2-oxo-1,3-oxazinan-3-yl]-9-oxo-8,17,19-triazatricyclo[14.2.1.0^2,7]nonadeca-1(18),2,4,6,12,16(19)-hexaen-5-yl]carbamate, TFA salt]: the Ki in data set [1] (substrate S-2366, 50 mM HEPES pH 7.4, TFA salt) was determined as 2460 nM.

`C[C@@H]1CCC[C@H](N2CC[C@H](c3c(F)ccc(Cl)c3F)OC2=O)c2cc(ccn2)-c2cc(C(=O)O)ccc2NC1=O` [Example 26, (10R,14S)-14-[(6R)-6-(3-chloro-2,6-difluorophenyl)-2-oxo-1,3-oxazinan-3-yl]-10-methyl-9-oxo-8,16-diazatricyclo[13.3.1.0^2,7]nonadeca-1(19),2,4,6,15,17-hexaene-4-carboxylic acid, TFA salt] returned a Ki in data set [1] (setting [4]) below 5 nM. On the same count and under the same terms, the figure for `COC(=O)Nc1ccc2c(c1)NC(=O)[C@H](C)CCC[C@H](N1CCC(c3cccc(Cl)c3)CC1=O)c1cc-2ccn1` (single isomer, unassigned) [Example 152] is below 5 nM.

In data set [1] (setting [4]), `COC(=O)Nc1ccc2c(c1)NC(=O)[C@H](C)CCC[C@H](N1CC[C@@H](c3c(F)ccc(Cl)c3F)NC1=O)c1nc-2c[nH]1` [Example 70] returned an inhibition constant Ki below 5 nM. Turning to `COC(=O)Nc1ccc2c(c1)NC(=O)[C@H](C)CCC[C@H](N1CC[C@@H](c3c(F)ccc(Cl)c3F)OC1=O)c1cc-2ccn1` [Example 100], in data set [1] (setting [4]), the Ki is below 5 nM.

In turn, `COC(=O)Nc1ccc2c(c1)N(C(=O)C(F)(F)F)[C@@H](C(=O)OC)CC=CC[C@H](NC(=O)OC(C)(C)C)c1nc-2cn1COCC[Si](C)(C)C` came in with a ring closure, isolated yield in data set [2] (from C=CC[C@H](NC(=O)OC(C)(C)C)c1nc(-c2ccc(NC(=O)OC)cc2N(C(=O)C(F)(F)F)[C@H](CC=C)C(=O)OC)cn1COCC[Si](C)(C)C, Grubbs II (0.03 eq), DCE, 37.7 mM, 85.0 °C, 16.0 h) of 29%. The compound `COC(=O)Nc1ccc2c(c1)N[C@@H](C(=O)OC)CCCC[C@H](N1CCC(c3cc(Cl)ccc3OC(F)F)OC1=O)c1nc-2c(C#N)[nH]1` (single isomer, unassigned) [Example 7] showed a Ki in data set [1] (setting [4]) of 41.8 nM. `COC(=O)Nc1ccc2c(c1)N[C@@H](C(=O)OC)CCCC[C@H](N1CCC(c3cccc(Cl)c3)OC1=O)c1nc-2c(C#N)[nH]1` (single isomer, unassigned) [Example 79] came in with a Ki in data set [1] (setting [4]) of 13.3 nM. On the same count and under the same terms, the figure for `COC(=O)Nc1ccc2c(c1)NC(=O)[C@H](C)CCC[C@H](N1CC[C@@H](c3nccc(Cl)c3F)N(C)C1=O)c1nc-2c[nH]1` [Example 71] is 330 nM. Take `COC(=O)Nc1ccc2c(c1)NC(=O)[C@@H](C)CCC[C@H](N1CC[C@@H](c3c(F)ccc(Cl)c3F)OC1=O)c1ccnc-2c1` [Example 119]: affinity in data set [1] (setting [4]) was put at a Ki of 9.6 nM. As for `COC(=O)Nc1ccc2c(c1)NC(=O)[C@H](C)CCCC(N1CC(=O)N(c3c(C(F)(F)F)ccc(Cl)c3F)CC1=O)c1cc-2ccn1` (single isomer, unassigned) [Example 37, TFA salt], the Ki in data set [1] (setting [4]) is below 5 nM. Regarding `COC(=O)Nc1ccc2c(c1)NC(=O)CC/C=C/C[C@H](N1CC[C@H](c3cc(Cl)ccc3OC(F)F)OC1=O)c1nc-2c[nH]1` [Example 77], in data set [1] (setting [4]), the Ki was found to be 7.46 nM. Take `COC(=O)Nc1ccc2c(c1)NC(=O)C(C)CCC[C@H](N1CC[C@H](c3c(F)ccc(Cl)c3F)OC1=O)c1cc-2cnn1` (stereo partly drawn) [Example 13, Methyl N-[(14S)-14-[(6R)-6-(3-chloro-2,6-difluorophenyl)-2-oxo-1,3-oxazinan-3-yl]-10-methyl-9-oxo-8,16,17-triazatricyclo[13.3.1.0^2,7]nonadeca-1(19),2(7),3,5,15,17-hexaen-5-yl]carbamate]: the Ki in data set [1] (setting [4]) is below 5 nM. On the same count and under the same terms, the figure for `COC(=O)Nc1ccc2c(c1)NC(=O)CCCC[C@H](N1CCC(c3cccc(Cl)c3)CC1=O)c1nc-2c[nH]1` (single isomer, unassigned) [Example 147] is 9.48 nM; for `COC(=O)Nc1ccc2c(c1)NC(=O)CCCC[C@H](N1CCC(c3cccc(Cl)c3)OC1=O)c1nc-2c[nH]1` (stereo partly drawn) [Example 4, Methyl ((14S)-14-(6-(3-chlorophenyl)-2-oxo-1,3-oxazinan-3-yl)-9-oxo-8,16,18-triazatricyclo[13.2.1.0^2,7]octadeca-1(17),2,4,6,15(18)-pentaen-5-yl)carbamate] it is 3400 nM.

In the case of `COC(=O)Nc1ccc2c(c1)NC(=O)C(C)/C=C/C[C@H](NC(=O)OC(C)(C)C)c1cc-2cnc1F` (stereo partly shown), in data set [2] (from C=CC[C@H](NC(=O)OC(C)(C)C)c1cc(-c2ccc(NC(=O)OC)cc2NC(=O)C(C)C=C)cnc1F, Grubbs II (0.4 eq), microwave, DCE, 17.3 mM, 120.0 °C), the ring closure, isolated yield is 68%.

As to `COC(=O)Nc1ccc2c(c1)NC(=O)C(C)C=CC[C@H](NC(=O)OC(C)(C)C)c1cc-2ccn1` (single isomer, unassigned; diastereomer a), the ring closure, isolated yield in data set [2] (from C=CC[C@H](NC(=O)OC(C)(C)C)c1cc(-c2ccc(NC(=O)OC)cc2NC(=O)C(C)C=C)ccn1, Grubbs II (0.1 eq)/pTsOH, DCM, 4.0 mM, 40.0 °C) came out at 25%. The compound `COC(=O)Nc1ccc2c(c1)NC(=O)[C@H](C)CCC[C@H](N1CC[C@H](c3nccc(Cl)c3F)N(C)C1=O)c1nc-2c[nH]1` [Example 72] returned a Ki in data set [1] (setting [4]) of 28.8 nM.

In the case of `COC(=O)Nc1ccc2c(c1)NC(=O)[C@H](C)CCC[C@H](N1CCC(c3c(C(F)(F)F)ccc(Cl)c3F)OC1=O)c1cc-2ccn1` (single isomer, unassigned) [Example 133], the affinity in data set [1] (setting [4]) corresponds to a Ki of 69.3 nM. Compound `COC(=O)Nc1ccc2c(c1)NC(=O)[C@H](C)/C=C/C[C@H](NC(=O)OC(C)(C)C)c1nc-2cn1COCC[Si](C)(C)C` displayed a ring closure, isolated yield in data set [2] (from C=CC[C@H](NC(=O)OC(C)(C)C)c1nc(-c2ccc(NC(=O)OC)cc2NC(=O)[C@H](C)C=C)cn1COCC[Si](C)(C)C, Grubbs II (0.4 eq)/pTsOH, DCM, 9.7 mM, 40.0 °C) of 41%.

`COC(=O)Nc1ccc2c(c1)NC(=O)CC/C=C/C[C@H](N1CCC(C)(c3c(F)ccc(Cl)c3F)OC1=O)c1nc-2c(Cl)[nH]1` (single isomer, unassigned) [Example 99] returned a Ki in data set [1] (setting [4]) of 1930 nM.

Usually Ki stands for the equilibrium dissociation constant of an inhibitor or competing ligand from its target.
